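How tested: cells in 96-well plates exposed to compound for 48 hours at five concentrations. GI50 = concentration required for 50% inhibition of growth. TGI denotes the concentration required for complete inhibition of growth.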
Assays:
Test in all cases: NCI tumour cell line growth inhibition, 48 h
[1] = system: 786-0 renal
[2] = system: A498 renal
[3] = system: A549 NSCLC
[4] = system: ACHN renal
[5] = system: BT-549 breast
[6] = system: CAKI-1 renal
[7] = system: CCRF-CEM leukemia
[8] = system: COLO 205 colon
[9] = system: DU-145 prostate
[10] = system: EKVX NSCLC
[11] = system: HCT-116 colon
[12] = system: HCT-15 colon
[13] = system: HL-60(TB) leukemia
[14] = system: HOP-62 NSCLC
[15] = system: HS 578T breast
[16] = system: HT29 colon
[17] = system: IGROV1 ovarian
[18] = system: K-562 leukemia
[19] = system: KM12 colon
[20] = system: LOX IMVI melanoma
[21] = system: M14 melanoma
[22] = system: MALME-3M melanoma
[23] = system: MCF7 breast
[24] = system: MDA-MB-231 breast
[25] = system: MDA-MB-435
[26] = system: MDA-N
[27] = system: MOLT-4 leukemia
[28] = system: NCI-H23 lung
[29] = system: NCI-H460 lung
[30] = system: NCI-H522 lung
[31] = system: NCI/ADR-RES ovarian
[32] = system: OVCAR-3 ovarian
[33] = system: OVCAR-4 ovarian
[34] = system: OVCAR-5 ovarian
[35] = system: OVCAR-8 ovarian
[36] = system: PC-3 prostate
[37] = system: RPMI-8226 leukemia
[38] = system: RXF 393 renal
[39] = system: SF-268 CNS
[40] = system: SF-295 CNS
[41] = system: SF-539 CNS
[42] = system: SK-MEL-2 melanoma
[43] = system: SK-MEL-28 melanoma
[44] = system: SK-MEL-5 melanoma
[45] = system: SK-OV-3 ovarian
[46] = system: SN12C renal
[47] = system: SNB-19 CNS
[48] = system: SNB-75 CNS
[49] = system: SR leukemia
[50] = system: SW-620 colon
[51] = system: TK-10 renal
[52] = system: U251 CNS
[53] = system: UACC-257 melanoma
[54] = system: UACC-62 melanoma
[55] = system: UO-31 renal

## CCC(C)C1=NC(C(=O)N/C=C\c2c[nH]c3cc(Br)c(Br)cc23)(C(C)C)NC1=O (stereo not given)
[1]
  GI50: 20.2 µM
  TGI: 42.9 µM
[2]
  GI50: 17.8 µM
  TGI: 35 µM
[3]
  GI50: 11.7 µM
  TGI: 26.5 µM
[4]
  GI50: 18.3 µM
  TGI: 39.6 µM
[5]
  GI50: 23.7 µM
  TGI: 71.2 µM
[6]
  GI50: 12.2 µM
  TGI: 26.8 µM
[7]
  GI50: 18.2 µM
  TGI: > 100 µM
[8]
  GI50: 14 µM
  TGI: 29.3 µM
[9]
  GI50: 14.3 µM
  TGI: 27.4 µM
[10]
  GI50: 5.98 µM
  TGI: 20 µM
[11]
  GI50: 15.6 µM
  TGI: 31.3 µM
[12]
  GI50: 28.1 µM
  TGI: 79.6 µM
[13]
  GI50: 33.7 µM
  TGI: 59.6 µM
[14]
  GI50: 19.8 µM
  TGI: 36.3 µM
[15]
  GI50: 21.4 µM
  TGI: 68.4 µM
[16]
  GI50: 18.3 µM
  TGI: 44.4 µM
[17]
  GI50: 6.36 µM
  TGI: 19.7 µM
[18]
  GI50: 16.5 µM
  TGI: 35.8 µM
[19]
  GI50: 18.5 µM
  TGI: 44.3 µM
[20]
  GI50: 16.6 µM
  TGI: 31.9 µM
[21]
  GI50: 14 µM
  TGI: 27.3 µM
[22]
  GI50: 20.6 µM
  TGI: 39.3 µM
[23]
  GI50: 13.6 µM
  TGI: 29.6 µM
[24]
  GI50: 17.4 µM
  TGI: 39.3 µM
[25]
  GI50: 12 µM
  TGI: 24.4 µM
[26]
  GI50: 15.4 µM
  TGI: 30 µM
[27]
  GI50: 15.2 µM
  TGI: 30.3 µM
[28]
  GI50: 16 µM
  TGI: 29.4 µM
[29]
  GI50: 12.9 µM
  TGI: 26.7 µM
[30]
  GI50: 13.5 µM
  TGI: 26.4 µM
[31]
  GI50: 27.3 µM
  TGI: > 100 µM
[32]
  GI50: 5.38 µM
  TGI: 18.4 µM
[33]
  GI50: 11.1 µM
  TGI: 32.3 µM
[34]
  GI50: 15.4 µM
  TGI: 29 µM
[35]
  GI50: 32.3 µM
  TGI: > 100 µM
[36]
  GI50: 10.1 µM
  TGI: 25.1 µM
[37]
  GI50: 8.75 µM
  TGI: 39 µM
[38]
  GI50: 15.4 µM
  TGI: 29.2 µM
[39]
  GI50: 15 µM
  TGI: 30.1 µM
[40]
  GI50: 15.9 µM
  TGI: 30.1 µM
[41]
  GI50: 21 µM
  TGI: 42.5 µM
[42]
  GI50: 12.3 µM
  TGI: 26.7 µM
[43]
  GI50: 15 µM
  TGI: 32.7 µM
[44]
  GI50: 11.7 µM
  TGI: 25.1 µM
[45]
  GI50: 18.6 µM
  TGI: 34.9 µM
[46]
  GI50: 18.3 µM
  TGI: 37.5 µM
[47]
  GI50: 18.5 µM
  TGI: 35 µM
[48]
  GI50: 3.37 µM
  TGI: 10.2 µM
[49]
  GI50: 17 µM
  TGI: 37.1 µM
[50]
  GI50: 16.9 µM
  TGI: 38.2 µM
[51]
  GI50: 18.5 µM
  TGI: 35.7 µM
[52]
  GI50: 14.1 µM
  TGI: 29 µM
[53]
  GI50: 15.3 µM
  TGI: 28.6 µM
[54]
  GI50: 12 µM
  TGI: 26.9 µM
[55]
  GI50: 12.2 µM
  TGI: 24.6 µM
